Assay results taken from patent publication US20180148418A1, “AMIDO-SUBSTITUTED CYCLOHEXANE DERIVATIVES” (Bayer Pharma Aktiengesellschaft, priority 2015, published 2018).

Target: T1, TNKS1 (Homo sapiens, UniProt O95271)
T1 construct: purchased BPS Bioscience, San Diego, USA 80579 (TNKS1 Histone Ribosylation Assay Kit)
T1 sequence (O95271 1-1327): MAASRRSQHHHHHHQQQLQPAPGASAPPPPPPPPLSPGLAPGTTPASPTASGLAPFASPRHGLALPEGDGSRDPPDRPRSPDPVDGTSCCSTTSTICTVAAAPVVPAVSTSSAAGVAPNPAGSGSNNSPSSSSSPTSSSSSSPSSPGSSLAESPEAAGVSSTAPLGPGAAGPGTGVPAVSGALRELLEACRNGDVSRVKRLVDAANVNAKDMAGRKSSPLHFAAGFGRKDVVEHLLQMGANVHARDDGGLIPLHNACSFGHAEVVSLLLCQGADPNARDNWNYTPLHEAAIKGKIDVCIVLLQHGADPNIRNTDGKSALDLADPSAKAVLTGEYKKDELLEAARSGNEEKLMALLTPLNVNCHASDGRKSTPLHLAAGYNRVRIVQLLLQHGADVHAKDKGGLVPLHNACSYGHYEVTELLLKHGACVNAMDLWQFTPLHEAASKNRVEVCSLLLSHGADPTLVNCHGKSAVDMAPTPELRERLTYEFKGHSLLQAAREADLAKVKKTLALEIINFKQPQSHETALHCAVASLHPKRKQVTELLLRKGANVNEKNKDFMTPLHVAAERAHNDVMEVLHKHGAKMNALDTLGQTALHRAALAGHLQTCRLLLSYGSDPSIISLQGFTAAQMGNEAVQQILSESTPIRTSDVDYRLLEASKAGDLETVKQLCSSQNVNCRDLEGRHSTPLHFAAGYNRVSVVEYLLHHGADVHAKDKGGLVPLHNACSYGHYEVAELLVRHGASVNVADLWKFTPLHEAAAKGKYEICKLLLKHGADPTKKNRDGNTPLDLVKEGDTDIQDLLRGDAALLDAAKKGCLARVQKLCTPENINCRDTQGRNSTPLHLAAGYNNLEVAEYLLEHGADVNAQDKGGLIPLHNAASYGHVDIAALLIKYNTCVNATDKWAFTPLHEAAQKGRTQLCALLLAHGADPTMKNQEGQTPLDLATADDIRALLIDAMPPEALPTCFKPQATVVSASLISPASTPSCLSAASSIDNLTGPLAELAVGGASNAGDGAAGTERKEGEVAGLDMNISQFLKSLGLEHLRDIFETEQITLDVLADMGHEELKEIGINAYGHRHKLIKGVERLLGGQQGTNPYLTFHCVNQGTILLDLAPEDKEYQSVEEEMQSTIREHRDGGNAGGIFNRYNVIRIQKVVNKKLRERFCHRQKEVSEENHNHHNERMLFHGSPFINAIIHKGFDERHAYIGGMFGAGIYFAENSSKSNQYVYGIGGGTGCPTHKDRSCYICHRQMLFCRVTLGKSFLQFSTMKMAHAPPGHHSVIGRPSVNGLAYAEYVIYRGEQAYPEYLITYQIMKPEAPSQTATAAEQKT
Assay: TNKS1 Assay B (auto-parsylation, [3H]-NAD+ SPA)
Type: biochemical
Details: 6 nM TNKS1, auto-parsylation, over night at room temperature

| Structure (SMILES) | IC50 |
| --- | --- |
| O=C(NC[C@@H]1CCCO1)c1nc[nH]c1C(=O)N[C@H]1CC[C@H](C(=O)Nc2ccc(F)cc2Cl)CC1 [Example 79, N^5-{trans-4-[(2-chloro-4-fluorophenyl)carbamoyl]cyclohexyl}-N^4-[(2S)-tetrahydrofuran-2-ylmethyl]-1H-imidazole-4,5-dicarboxamide] | 170 nM |
| COCC(C)NC(=O)c1nc[nH]c1C(=O)N[C@H]1CC[C@H](C(=O)Nc2ccc(F)cc2Cl)CC1 (stereo partly drawn) [Example 82, N^5-{trans-4-[(2-chloro-4-fluorophenyl)carbamoyl]cyclohexyl}-N^4-(1-methoxypropan-2-yl)-1H-imidazole-4,5-dicarboxamide] | 300 nM |
| COC[C@H](C)NC(=O)c1nc[nH]c1C(=O)N[C@H]1CC[C@H](C(=O)Nc2ccc(F)cc2Cl)CC1 [Example 83, N^5-{trans-4-[(2-chloro-4-fluorophenyl)carbamoyl]cyclohexyl}-N^4-[(2S)-1-methoxypropan-2-yl]-1H-imidazole-4,5-dicarboxamide] | 610 nM |
| COC(C)(C)CNC(=O)c1nc[nH]c1C(=O)N[C@H]1CC[C@H](C(=O)Nc2cc(F)c(F)cc2Cl)CC1 [Example 85, N^5-{trans-4-[(2-chloro-4,5-difluorophenyl)carbamoyl]cyclohexyl}-N^4-(2-methoxy-2-methylpropyl)-1H-imidazole-4,5-dicarboxamide] | 49 nM |
| O=C(NCC1CCCO1)c1nc[nH]c1C(=O)N[C@H]1CC[C@H](C(=O)Nc2cc(N3CCOCC3)ccc2Cl)CC1 (stereo partly drawn) [Example 89, N^5-(trans-4-{[2-chloro-5-(morpholin-4-yl)phenyl]carbamoyl}cyclohexyl)-N^4-(tetrahydrofuran-2-ylmethyl)-1H-imidazole-4,5-dicarboxamide] | 1200 nM |
| COC(C)(C)CNC(=O)c1nc[nH]c1C(=O)N[C@H]1CC[C@H](C(=O)Nc2cc(N3CCOCC3)ccc2Cl)CC1 [Example 90, N^5-(trans-4-{[2-chloro-5-(morpholin-4-yl)phenyl]carbamoyl}cyclohexyl)-N^4-(2-methoxy-2-methylpropyl)-1H-imidazole-4,5-dicarboxamide] | 3100 nM |
| CC(C)(O)CNC(=O)c1nc[nH]c1C(=O)N[C@H]1CC[C@@]2(CCN(c3cccc(Cl)c3)C2=O)CC1 [Example 284, N^5-[(trans)-2-(3-chlorophenyl)-1-oxo-2-azaspiro[4.5]dec-8-yl]-N^4-(2-hydroxy-2-methylpropyl)-1H-imidazole-4,5-dicarboxamide] | 650 nM |
| COCC(C)NC(=O)c1nc[nH]c1C(=O)N[C@H]1CC[C@@]2(CCN(c3cccc(Cl)c3)C2=O)CC1 (stereo partly drawn) [Example 285, N^5-[(trans)-2-(3-chlorophenyl)-1-oxo-2-azaspiro[4.5]dec-8-yl]-N^4-(1-methoxypropan-2-yl)-1H-imidazole-4,5-dicarboxamide] | 630 nM |
| CNC(=O)c1nc[nH]c1C(=O)N[C@H]1CC[C@@]2(CCN(c3cc(C)c(F)cc3Cl)C2=O)CC1 [Example 288, N^5-[(trans)-2-(2-chloro-4-fluoro-5-methylphenyl)-1-oxo-2-azaspiro[4.5]dec-8-yl]-N^4-methyl-1H-imidazole-4,5-dicarboxamide] | 6.7 nM |
| CCNC(=O)c1nc[nH]c1C(=O)N[C@H]1CC[C@@]2(CCN(c3cc(C)c(F)cc3Cl)C2=O)CC1 [Example 289, N^5-[(trans)-2-(2-chloro-4-fluoro-5-methylphenyl)-1-oxo-2-azaspiro[4.5]dec-8-yl]-N^4-ethyl-1H-imidazole-4,5-dicarboxamide] | 8.7 nM |

The remaining molecules from weak to strong by IC50, led by results:

| IC50 | Structure (SMILES) |
| --- | --- |
| 8600 nM | O=C(N[C@H]1CC[C@@]2(CCN(c3cccc(Cl)c3)C2=O)CC1)c1[nH]cnc1C(=O)N1CCOCC1 [Example 286, N-[(trans)-2-(3-chlorophenyl)-1-oxo-2-azaspiro[4.5]dec-8-yl]-4-(morpholin-4-ylcarbonyl)-1H-imidazole-5-carboxamide] |
| 3600 nM | CNC(=O)c1nc[nH]c1C(=O)N[C@H]1CC[C@H](C(=O)Nc2cc(N3CCOCC3)ccc2Cl)CC1 [Example 88, N^5-(trans-4-{[2-chloro-5-(morpholin-4-yl)phenyl]carbamoyl}cyclohexyl)-N^4-methyl-1H-imidazole-4,5-dicarboxamide] |
| 370 nM | COC[C@@H](C)NC(=O)c1nc[nH]c1C(=O)N[C@H]1CC[C@H](C(=O)Nc2ccc(F)cc2Cl)CC1 [Example 84, N^5-{trans-4-[(2-chloro-4-fluorophenyl)carbamoyl]cyclohexyl}-N^4-[(2R)-1-methoxypropan-2-yl]-1H-imidazole-4,5-dicarboxamide] |
| 100 nM | COC(C)CNC(=O)c1nc[nH]c1C(=O)N[C@H]1CC[C@H](C(=O)Nc2ccc(F)cc2Cl)CC1 (stereo partly drawn) [Example 81, N^5-{trans-4-[(2-chloro-4-fluorophenyl)carbamoyl]cyclohexyl}-N^4-(2-methoxypropyl)-1H-imidazole-4,5-dicarboxamide] |
| 75 nM | O=C(NCC1CCCO1)c1nc[nH]c1C(=O)N[C@H]1CC[C@H](C(=O)Nc2ccc(F)cc2Cl)CC1 (stereo partly drawn) [Example 78, N^5-{trans-4-[(2-chloro-4-fluorophenyl)carbamoyl]cyclohexyl}-N^4-(tetrahydrofuran-2-ylmethyl)-1H-imidazole-4,5-dicarboxamide] |
| 62 nM | O=C(NC[C@H]1CCCO1)c1nc[nH]c1C(=O)N[C@H]1CC[C@H](C(=O)Nc2ccc(F)cc2Cl)CC1 [Example 80, N^5-{trans-4-[(2-chloro-4-fluorophenyl)carbamoyl]cyclohexyl}-N^4-[(2R)-tetrahydrofuran-2-ylmethyl]-1H-imidazole-4,5-dicarboxamide] |
| 37 nM | CC(C)NCCNC(=O)c1nc[nH]c1C(=O)N[C@H]1CC[C@H](C(=O)Nc2ccc(F)cc2Cl)CC1 [Example 77, N^5-{trans-4-[(2-chloro-4-fluorophenyl)carbamoyl]cyclohexyl}-N^4-[2-(isopropylamino)ethyl]-1H-imidazole-4,5-dicarboxamide] |
| 30 nM | O=C(NCC1CCCO1)c1nc[nH]c1C(=O)N[C@H]1CC[C@H](C(=O)Nc2cc(F)c(F)cc2Cl)CC1 (stereo partly drawn) [Example 86, N^5-{trans-4-[(2-chloro-4,5-difluorophenyl)carbamoyl]cyclohexyl}-N^4-(tetrahydrofuran-2-ylmethyl)-1H-imidazole-4,5-dicarboxamide] |
| 27 nM | COCC(C)NC(=O)c1nc[nH]c1C(=O)N[C@H]1CC[C@H](C(=O)Nc2cc(F)c(F)cc2Cl)CC1 (stereo partly drawn) [Example 87, N^5-{trans-4-[(2-chloro-4,5-difluorophenyl)carbamoyl]cyclohexyl}-N^4-(1-methoxypropan-2-yl)-1H-imidazole-4,5-dicarboxamide] |
| 10 nM | Cc1cc(N2CC[C@]3(CC[C@@H](NC(=O)c4[nH]cnc4C(=O)NCC(F)(F)F)CC3)C2=O)c(Cl)cc1F [Example 297, N^5-[(trans)-2-(2-chloro-4-fluoro-5-methylphenyl)-1-oxo-2-azaspiro[4.5]dec-8-yl]-N^4-(2,2,2-trifluoroethyl)-1H-imidazole-4,5-dicarboxamide] |
| 6.2 nM | Cc1cc(N2CC[C@]3(CC[C@@H](NC(=O)c4[nH]cnc4C(=O)NCCN4CCC(C)CC4)CC3)C2=O)c(Cl)cc1F [Example 290, N^5-[(trans)-2-(2-chloro-4-fluoro-5-methylphenyl)-1-oxo-2-azaspiro[4.5]dec-8-yl]-N^4-[2-(4-methylpiperidin-1-yl)ethyl]-1H-imidazole-4,5-dicarboxamide] |
